Converted amounts (≈) assume the structure as drawn. Where two headings read alike, the source gives them in different places. Starred links: 1 amine or outer side, 2 acyl side, 3 side chain; linkers in the order of their positions; H or OH if unused. Positions of bridges follow the written chain, without caps; N, C: chain ends. Non-standard residues stand in square brackets, D forms with d. Residues, ends and D or L forms follow the SMILES beside them. Groups on a side chain read outwards from the residue. *: point of attachment. C18 diacid = O=C(O)CCCCCCCCCCCCCCCCC(=O)*; γGlu = O=C(O)[C@H](CCC(=O)[*:2])N[*:1]; Palmitoyl = CCCCCCCCCCCCCCCC(=O)*

A short description of data set [1]: Solubility of amylin analog polypeptides (visual inspection, room temperature). It is filed as physicochemical. As to the method:
The analog polypeptides described herein were tested for solubility in saline 20% DMSO in water (i.e., bioassay buffer) or in aqueous (DI water) at room temperature. Samples were visually inspected for clarity of the sample, any appearance of turbidity or haziness.

Another data set can be described thus: in vivo. Further details: species or system Sprague-Dawley rats. The note with it: male, Sprague-Dawley, rat, iv, 0.033 mg/kg. The method in brief: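 Male Sprague-Dawley rats, non-fasted (n=3), given peptide in saline as 1-h IV or SC infusion at 0.033 mg/kg, or SC bolus at 0.3 mg/kg; jugular blood to 48 h into K2EDTA plus protease inhibitors. Plasma extracted by precipitation or WCX solid-phase extraction, quantified by UPLC-MS/MS against standards in matching rat plasma.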

The nature of data set [2]: 27-day weight loss in combination with exenatide. The note with it: LE DIO rats.
Data set [3] in a line: 27-day HbA1c change in combination with exenatide. The settings on record: dose 30 mcg/kg + Exenatide 10 mcg/kg, ZDF rats.
The nature of data set [4]: Acute food intake inhibition after SC bolus injection (BioDAQ). The settings on record: Long Evans rats on 45% high fat diet.
Data set [5] is described as follows: 13-day dose-response body weight loss, continuous SC infusion by osmotic mini-pump. The settings on record: 13 days, LE DIO rats; for DIO Dose Response 13 d weight loss, ΔΔ % weight loss: from baseline and vehicle control.
The conditions of data set [6]: in vivo; cited from earlier work.
The conditions of data set [7]: in serum; cited from earlier work.

Usually solubility stands for how much of the substance goes into solution per volume. A word on the Vd: it is a proportionality between amount in the body and measured concentration, not a real space. Read a high Vd as wide distribution into tissue. As usually defined, the clearance is the rate of elimination divided by the concentration. A low value points to a low capacity for elimination. Broadly, the half-life is how long it takes for the measured level to halve. In data set [1] (Solubility), `CCCCCCCCCCCCCCCC(=O)N[C@@H](CCC(=O)N[C@@H](CCC(=O)NCCCC[C@@H](NC(=O)[C@H](CCC(=O)O)NC(=O)[C@H](CC(N)=O)NC(=O)[C@H](C)NC(=O)[C@H](CC(C)C)NC(=O)[C@H](CCCNC(=N)N)NC(=O)[C@H](CCC(N)=O)NC(=O)[C@@H](NC(=O)[C@H](C)NC(=O)[C@@H]1CSSC[C@H](NC(=O)[C@@H](N)CO)C(=O)N[C@@H](CC(N)=O)C(=O)N[C@@H]([C@@H](C)O)C(=O)N[C@@H](CO)C(=O)N[C@@H]([C@@H](C)O)C(=O)N1)[C@@H](C)O)C(=O)N[C@@H](Cc1c[nH]cn1)C(=O)N[C@@H](CCCCN)C(=O)N[C@@H](CO)C(=O)N[C@@H](CO)C(=O)N[C@@H](CC(N)=O)C(=O)N[C@@H](CC(N)=O)C(=O)N[C@@H](Cc1ccccc1)C(=O)NCC(=O)N1CCC[C@H]1C(=O)N[C@H](C(=O)N[C@@H](CC(C)C)C(=O)N1CCC[C@H]1C(=O)N1CCC[C@H]1C(=O)N[C@H](C(=O)N[C@@H](CCCCN)C(=O)N[C@H](C(=O)NCC(=O)N[C@@H](CO)C(=O)N[C@@H](CCC(=O)O)C(=O)N[C@H](C(=O)N[C@@H](Cc1ccc(O)cc1)C(N)=O)[C@@H](C)O)C(C)C)[C@@H](C)O)[C@@H](C)CC)C(=O)O)C(=O)O` [Compound A27] (H-SCNTSTCATQRLANE[dK]([γGlu-γGlu-Palmitoyl])HKSSNNFGPILPPTKVGSETY-NH2; disulfide 2-7; N-terminus assumed) returned a solubility of 80.6 mg/mL (≈ 18 mM). Besides, in the data set “in vivo”, the Vd worked out at 0.174 L/kg. This molecule showed a clearance in the data set “in vivo” of 0.0287 L/h/kg. In addition, the half-life in the data set “in vivo” was 5.16 h. Moreover, the “DIO Combination + Exenatide 27 d weight loss, ΔΔ % weight loss” value in data set [2] (dose 3 mcg/kg + Exenatide 10 mcg/kg) was 9%; in data set [2] (dose 10 mcg/kg + Exenatide 10 mcg/kg), 12%; in data set [2] (dose 30 mcg/kg + Exenatide 10 mcg/kg), 17%. For the same molecule, the “ZDF Combination + Exenatide 27 d HbA1c (%), ΔΔ % HbA1c” value in data set [3] is listed as 3.3%. Further, the “Acute Food Intake % Inhibition vs vehicle” value in data set [4] (0-24 hr after acute SC dosing) turned out to be 86%; in data set [4] (25-48 hr after acute SC dosing) it was 57%; in data set [4] (49-72 hr after acute SC dosing), 13%. For the same molecule, the “DIO Dose Response 13 d weight loss, ED50” value in data set [5] was 0.036 mg/kg. Also, in data set [5], the “DIO Dose Response 13 d weight loss, ΔΔ % weight loss” value is 5%.
As to `CC[C@H](C)[C@H](NC(=O)[C@@H]1CCCN1C(=O)CNC(=O)[C@H](Cc1ccccc1)NC(=O)[C@H](CC(N)=O)NC(=O)[C@H](CC(N)=O)NC(=O)[C@H](CO)NC(=O)[C@H](CO)NC(=O)[C@H](CCCCN)NC(=O)[C@H](Cc1c[nH]cn1)NC(=O)[C@H](CC(C)C)NC(=O)[C@H](CCC(=O)O)NC(=O)[C@H](CC(N)=O)NC(=O)[C@H](C)NC(=O)[C@H](CC(C)C)NC(=O)[C@H](CCCNC(=N)N)NC(=O)[C@H](CCC(N)=O)NC(=O)[C@@H](NC(=O)[C@H](C)NC(=O)[C@@H]1CSSC[C@H](NC(=O)[C@@H](N)CCCCNC(=O)CC[C@H](NC(=O)CC[C@H](NC(=O)CCCCCCCCCCCCCCCCC(=O)O)C(=O)O)C(=O)O)C(=O)N[C@@H](CC(N)=O)C(=O)N[C@@H]([C@@H](C)O)C(=O)N[C@@H](CO)C(=O)N[C@@H]([C@@H](C)O)C(=O)N1)[C@@H](C)O)C(=O)N[C@@H](CC(C)C)C(=O)N1CCC[C@H]1C(=O)N1CCC[C@H]1C(=O)N[C@H](C(=O)N[C@@H](CCCCN)C(=O)N[C@H](C(=O)NCC(=O)N[C@@H](CO)C(=O)N[C@@H](CCC(=O)O)C(=O)N[C@H](C(=O)N[C@@H](Cc1ccc(O)cc1)C(N)=O)[C@@H](C)O)C(C)C)[C@@H](C)O` [Compound A65] (H-K([γGlu-γGlu-C18 diacid])CNTSTCATQRLANELHKSSNNFGPILPPTKVGSETY-NH2; disulfide 2-7; N-terminus assumed), the solubility in data set [1] (deionised water, TFA salt, DI H2O, room temperature, read-out: Solubility) came to 138 mg/mL. The same molecule showed a Vd in “in vivo” of 0.175 L/kg. Moreover, the clearance in the data set “in vivo” stood at 0.00606 L/h/kg. The half-life in the data set “in vivo” is 22.6 h. For the same molecule, the “DIO Combination + Exenatide 27 d weight loss, ΔΔ % weight loss” value in data set [2] (dose 100 mcg/kg + Exenatide 10 mcg/kg) was found to be 8%; in data set [2] (dose 300 mcg/kg + Exenatide 10 mcg/kg), 9%; in data set [2] (dose 600 mcg/kg + Exenatide 10 mcg/kg), 12%. In addition, the “Acute Food Intake % Inhibition vs vehicle” value came to 50% in data set [4] (0-24 hr after acute SC dosing), 25% in data set [4] (25-48 hr after acute SC dosing) and 14% in data set [4] (49-72 hr after acute SC dosing). Moreover, in data set [5], the “DIO Dose Response 13 d weight loss, ED50” value worked out at 0.07 mg/kg. In data set [5], the “DIO Dose Response 13 d weight loss, ΔΔ % weight loss” value was 3%.
With davalintide, the half-life entry in data set [6] is given as “about 26 minutes”.
Take “human amylin (KCNTATCATQRLANFLVHSSNNFGAILSSTNVGSNTY) [37-residue polypeptide hormone co-secreted with insulin from pancreatic β-cells]”: in data set [7], the half-life entry is given as “about 13 minutes”.

The record behind these values is patent US12018059B2, “Human amylin analog polypeptides and methods of use” (Intarcia Therapeutics, Inc., priority 2018, dated 2024).
